The supplement of paper PMC10307832

What was measured:
Assay in all cases: relative viability (nuclei count vs DMSO), 5 days (fraction); higher = more cells survive
Tosedostat + Phenformin = compound: CC(C)C[C@@H](C(=O)N[C@H](C(=O)OC1CCCC1)c1ccccc1)[C@H](O)C(=O)NO [Tosedostat] + N=C(N)NC(=N)NCCc1ccccc1 [Phenformin] (partner 250 µM)
In short: (§1)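 Medians of duplicate plates are given as relative viability. That measure is the nuclei count in treated wells divided by the count in vehicle wells. Counts were taken on 4× images of lung cancer cell lines in 1536-well plates, 5 days after pin-tool dosing the day after seeding with one drug alone or a fixed anchor-drug dose plus five library-drug doses (not always all listed) in √10 steps.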

Tosedostat + Vorinostat = compound: CC(C)C[C@@H](C(=O)N[C@H](C(=O)OC1CCCC1)c1ccccc1)[C@H](O)C(=O)NO [Tosedostat] + O=C(CCCCCCC(=O)Nc1ccccc1)NO [Vorinostat] (partner 1 µM)
In short: as §1

[1] = compound: CC1=NN=C(O1)C2=NN=C(C=C2)N3CCC(CC3)OC4=C(C=CC(=C4)F)Cl + CS(=O)(=O)CCNCc1ccc(-c2ccc3ncnc(Nc4ccc(OCc5cccc(F)c5)c(Cl)c4)c3c2)o1 [Lapatinib] (partner 2 µM)
In short: as §1

[2] = compound: CC1=NN=C(O1)C2=NN=C(C=C2)N3CCC(CC3)OC4=C(C=CC(=C4)F)Cl + O=C(CCCCCCC(=O)Nc1ccccc1)NO [Vorinostat] (partner 1 µM)
In short: as §1

EPLC-272H showed a relative viability (Tosedostat + Phenformin; first compound 0.02 µM) of 0.288, a relative viability (Tosedostat + Phenformin; first compound 0.06325 µM) of 0.299 and a relative viability (Tosedostat + Phenformin; first compound 0.2 µM) of 0.259. For the same cell line, the relative viability (Tosedostat + Phenformin; first compound 0.6325 µM) was 0.239, the relative viability (Tosedostat + Phenformin; first compound 2 µM) was 0.189 and the relative viability (Tosedostat + Vorinostat; first compound 0.02 µM) was 0.509. The relative viability (Tosedostat + Vorinostat; first compound 0.06325 µM) was 0.489, the relative viability (Tosedostat + Vorinostat; first compound 0.2 µM) was 0.347 and the relative viability (Tosedostat + Vorinostat; first compound 0.6325 µM) was 0.401. It also gave a relative viability (Tosedostat + Vorinostat; first compound 2 µM) of 0.269, a relative viability ([1]; first compound 0.253 µM) of 0.809 and a relative viability ([1]; first compound 2.53 µM) of 1.01. It also gave a relative viability ([1]; first compound 8 µM) of 0.814, a relative viability ([2]; first compound 0.253 µM) of 0.352 and a relative viability ([2]; first compound 0.8 µM) of 0.529. For the same cell line, the relative viability ([2]; first compound 2.53 µM) was 0.313 and the relative viability ([2]; first compound 8 µM) was 0.387.
